Data from US5198445A, “Composition and use of substituted 3-thio-2-propynenitriles as industrial antimicrobials” (The Dow Chemical Company, priority 1992, dated 1993).
Converted amounts (≈) assume the structure as drawn. Like-named read-outs stand apart in the source and are kept apart here.

Assays:
[1] = Antimicrobial activity of decomposition product; format: cell-based
Source text: It has also been discovered that the compounds of the present invention may degrade at a pH of 7 or above over an extended time period to compounds which are less antimicrobially active than the original compounds of the present invention.

Bacillus subtilis (Bs) = experiment: MIC in nutrient agar, Bacillus subtilis; format: cell-based, Bacillus subtilis ATCC 8473; conditions: Bacillus subtilis
Experimental: (§1) The minimum inhibitory concentration (MIC) for the compounds listed in Table I is determined for 9 bacteria, using nutrient agar, and 7 yeast and fungi, using malt yeast agar. A one percent solution of the test compound is prepared in a mixture of acetone and water. Nutrient agar is prepared at pH 6.8, representing a neutral medium, and at pH 8.2, representing an alkaline medium. The nutrient agars are prepared by adding 23 g of nutrient agar to one-liter of deionized water. In addition, the alkaline medium is prepared by adjusting a 0.04M solution of N-[tris-(hydroxymethyl)methyl]-glycine buffered deionized water with concentrated sodium hydroxide to a pH of […]. Malt yeast agar is prepared by adding 3 g yeast extract and 45 g malt agar per liter of deionized water. The specific agar is dispensed in 30 ml aliquots into 25×200 mm test tubes, capped and autoclaved for 15 minutes at 115° C. The test tubes containing the agar are cooled in a water bath until the temperature of the agar is 48° C. Then, an appropriate amount of the one percent solution of the test compound is added (except in the controls where no compound is added) to the respective test tubes so that the final concentrations are 500, 250, 100, 50, 25, 10, 5, 2.5, 1.0 and zero parts per million of the test compound in the agar, thus having a known concentration of test compound dispersed therein. The contents of the test tubes are then transferred to respective petri plates. After drying for 24 hours, the petri plates containing nutrient agar are inoculated with bacteria and those containing malt yeast agar are inoculated with yeast and fungi.
(§2) The inoculation with bacteria is accomplished by using the following procedure. Twenty-four hour-cultures of each of the bacteria are prepared by incubating the respective bacteria in tubes containing nutrient broth for 24 hours at 30° C. in a shaker. Dilutions of each of the 24 hour-cultures are made so that nine separate suspensions (one for each of the nine test bacteria) are made, each containing 10^8 colony forming units (CFU) per ml of suspension of a particular bacteria. Aliquots of 0.3 ml of each of the bacterial suspensions are used to fill the individual wells of Steer's Replicator. For each microbial suspension, 0.3 ml was used to fill three wells (i.e., three wells of 0.3 ml each) so that for the nine different bacteria, 27 wells are filled. The Steer's Replicator is then used to inoculate both the neutral and alkaline pH nutrient agar petri plates.
(§3) The inoculated petri plates are incubated at 30° C. for 48 hours and then read to determine if the test compound which is incorporated into the agar prevented growth of the respective bacteria.
(§4) Table II lists the bacteria, yeast and fungi used in the MIC test described above along with their respective American Type Culture Collection (ATCC) identification numbers.
(§5) The following MIC and MEC antimicrobial tests, whose results are shown in Tables XIII-XVII, are performed using the same methods as described hereinabove.

Candida albicans (Ca) = experiment: MIC in malt yeast agar, Candida albicans; format: cell-based, Candida albicans ATCC 10231; conditions: read-out: Minimum Inhibitory Concentration, Ca
Experimental: as §1
(§6) The inoculation with the yeast and fungi is accomplished as follows. Cultures of yeast and fungi are incubated for seven days on malt yeast agar at 30° C. These cultures are used to prepare suspensions by the following procedure. A suspension of each organism is prepared by adding 10 ml of sterile saline and 10 microliters of octylphenoxy polyethoxy ethanol (TRITON® X-100, a trademark of Rohm & Haas Company) to the agar slant of yeast or fungi. The sterile saline/octylphenoxy polyethoxy ethanol solution is then agitated with a sterile swab to suspend the microorganism grown on the slant. Each resulting suspension is diluted into sterile saline (1 part suspension: 9 parts sterile saline). Aliquots of these dilutions are placed in individual wells of Steer's Replicator and petri plates inoculated as previously described. The petri plates are incubated at 30° C. and read after 48 hours for yeast and 72 hours for fungi.
as §4, §5

Trichoderma viride (Tv) = experiment: MIC in malt yeast agar, Trichoderma viride; format: cell-based, Trichoderma viride ATCC 8678; conditions: read-out: Minimum Inhibitory Concentration, Tv
Experimental: as §1, §6, §4, §5

[2] = system: Pseudomonas aeruginosa (PRD-10); experiment: MIC in nutrient agar, Pseudomonas aeruginosa PRD-10; format: cell-based, Pseudomonas aeruginosa ATCC 15442; conditions: Pseudomonas aeruginosa
Experimental: as §1, §2, §3, §4, §5

Aspergillus niger (An) = experiment: MIC in malt yeast agar, Aspergillus niger; format: cell-based, Aspergillus niger ATCC 16404; conditions: read-out: Minimum Inhibitory Concentration, An
Experimental: as §1, §6, §4, §5

[3] = system: Aureobasidium pullulan (Ap); experiment: MIC in malt yeast agar, Aureobasidium pullulan; format: cell-based, Aureobasidium pullulan ATCC 16622; conditions: read-out: Minimum Inhibitory Concentration, Ap
Experimental: as §1, §6, §4, §5

[4] = system: Staphylococcus aureus (Sa); experiment: MIC in nutrient agar, Staphylococcus aureus; format: cell-based, Staphylococcus aureus ATCC 6538; conditions: Staphylococcus aureus
Experimental: as §1, §2, §3, §4, §5

[5] = system: Salmonella choleraesuis (Sc); experiment: MIC in nutrient agar, Salmonella choleraesuis; format: cell-based, Salmonella choleraesuis ATCC 10708; conditions: Salmonella enterica, CHOLERAESUIS
Experimental: as §1, §2, §3, §4, §5

[6] = system: Klebsiella pneumoniae (Kp); experiment: MIC in nutrient agar, Klebsiella pneumoniae; format: cell-based, Klebsiella pneumoniae ATCC 8308
Experimental: as §1, §2, §3, §4, §5

[7] = system: Saccharomyces cerevisiae (Sc); experiment: MIC in malt yeast agar, Saccharomyces cerevisiae; format: cell-based, Saccharomyces cerevisiae ATCC 4105; conditions: read-out: Minimum Inhibitory Concentration, Sc
Experimental: as §1, §6, §4, §5

[8] = system: Pseudomonas aeruginosa (Pa); experiment: MIC in nutrient agar, Pseudomonas aeruginosa; format: cell-based, Pseudomonas aeruginosa ATCC 10145
Experimental: as §1, §2, §3, §4, §5

Proteus vulgaris (Pv) = experiment: MIC in nutrient agar, Proteus vulgaris; format: cell-based, Proteus vulgaris ATCC 881
Experimental: as §1, §2, §3, §4, §5

[9] = system: Enterobacter aerogenes (Ea); experiment: MIC in nutrient agar, Enterobacter aerogenes; format: cell-based, Enterobacter aerogenes ATCC 13048; conditions: Klebsiella aerogenes
Experimental: as §1, §2, §3, §4, §5

[10] = system: Penicillium chrysogenum (Pc); experiment: MIC in malt yeast agar, Penicillium chrysogenum; format: cell-based, Penicillium chrysogenum ATCC 9480; conditions: read-out: Minimum Inhibitory Concentration, Pc
Experimental: as §1, §6, §4, §5

Fusarium oxysporum (Fo) = experiment: MIC in malt yeast agar, Fusarium oxysporum; format: cell-based, Fusarium oxysporum ATCC 48112; conditions: read-out: Minimum Inhibitory Concentration, Fo
Experimental: as §1, §6, §4, §5

Escherichia coli (Ec) = experiment: MIC in nutrient agar, Escherichia coli; format: cell-based, Escherichia coli ATCC 11229; conditions: Escherichia coli
Experimental: as §1, §2, §3, §4, §5

CSC(=CC#N)SC [3,3-bis(methylthio)propenenitrile]
antimicrobial activity of decomposition product [1]: virtually inactive as an antimicrobial

CS/C=C(/Cl)C#N [Compound H, E isomer of 2-chloro-3-(methylthio)-2-propenenitrile]
MIC (Bacillus subtilis (Bs); pH 6.8, read-out: Minimum Inhibitory Concentration, Bs): > 500 mg/L
MIC (Bacillus subtilis (Bs); pH 8.2, read-out: Minimum Inhibitory Concentration, Bs): 500 mg/L (≈ 3.74 mM)
MIC (Candida albicans (Ca)): 250 mg/L (≈ 1.87 mM)
MIC (Trichoderma viride (Tv)): 250 mg/L (≈ 1.87 mM)
MIC ([2]; pH 6.8, read-out: Minimum Inhibitory Concentration, PRD): > 500 mg/L
MIC ([2]; pH 8.2, read-out: Minimum Inhibitory Concentration, PRD): 250 mg/L (≈ 1.87 mM)
MIC (Aspergillus niger (An)): 250 mg/L (≈ 1.87 mM)
MIC [3]: 250 mg/L (≈ 1.87 mM)
MIC ([4]; pH 6.8, read-out: Minimum Inhibitory Concentration, Sa): > 500 mg/L
MIC ([4]; pH 8.2, read-out: Minimum Inhibitory Concentration, Sa): 500 mg/L (≈ 3.74 mM)
MIC ([5]; pH 6.8, read-out: Minimum Inhibitory Concentration, Sc): > 500 mg/L
MIC ([5]; pH 8.2, read-out: Minimum Inhibitory Concentration, Sc): 500 mg/L (≈ 3.74 mM)
MIC ([6]; pH 6.8, read-out: Minimum Inhibitory Concentration, Kp): > 500 mg/L
MIC ([6]; pH 8.2, read-out: Minimum Inhibitory Concentration, Kp): 500 mg/L (≈ 3.74 mM)
MIC [7]: 500 mg/L (≈ 3.74 mM)
MIC ([8]; pH 6.8, read-out: Minimum Inhibitory Concentration, Pa): > 500 mg/L
MIC ([8]; pH 8.2, read-out: Minimum Inhibitory Concentration, Pa): 250 mg/L (≈ 1.87 mM)
MIC (Proteus vulgaris (Pv); pH 6.8, read-out: Minimum Inhibitory Concentration, Pv): > 500 mg/L
MIC (Proteus vulgaris (Pv); pH 8.2, read-out: Minimum Inhibitory Concentration, Pv): 250 mg/L (≈ 1.87 mM)
MIC ([9]; pH 6.8, read-out: Minimum Inhibitory Concentration, Ea): > 500 mg/L
MIC ([9]; pH 8.2, read-out: Minimum Inhibitory Concentration, Ea): 500 mg/L (≈ 3.74 mM)
MIC [10]: 100 mg/L (≈ 0.748 mM)
MIC (Fusarium oxysporum (Fo)): 100 mg/L (≈ 0.748 mM)
MIC (Escherichia coli (Ec); pH 6.8, read-out: Minimum Inhibitory Concentration, Ec): > 500 mg/L
MIC (Escherichia coli (Ec); pH 8.2, read-out: Minimum Inhibitory Concentration, Ec): 500 mg/L (≈ 3.74 mM)
